outcome, EC50 and IC50 data for 75 compounds are collected here from PubChem BioAssay AID179 (DTP/NCI, 2004).

SMILES strings stand for the structures. Active and inactive are the calls of the source.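 The calls were made as follows: active = compounds giving half or more protection of infected cells from virus-caused growth loss, again on retest; inactive = the rest.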

In the assay the test system is CEM cells HIV-1 protection, formazan growth assay. The assay is described as follows: NCI AIDS Antiviral Assay. The conditions noted are these: for IC50: measured here: growth of uninfected CEM cells. Put shortly: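 Steps: treat uninfected and HIV-1-infected human CEM cells at five drug levels; quantify growth by soluble formazan; retest any compound reaching 50% protection; classify actives from the retest.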

`CN(C)CC1CCc2ccccc2C1=O` (stereo not drawn): the outcome was inactive.

On to `CCOC(=O)C(C)c1nc2cc(N3CCOCC3)c(F)cc2[nH]c1=O` (stereo not drawn), for which the EC50 was more than 200 µM and the IC50 is more than 200 µM.

With `COC(=O)/C(C#N)=C\N1CCNC1=S`, the EC50 was more than 200 µM and the IC50 is more than 200 µM.

`O=[N+]([O-])c1ccc(C2=NOC(c3ccccc3)N2C23CC4CC(CC(C4)C2)C3)cc1` (stereo not drawn): the EC50 is more than 200 µM and the IC50 was found to be 107 µM.

Take `O=C1/C(=C/c2ccc(Cl)cc2)COc2ccc(Br)cc21`: the EC50 is more than 14.8 µM and the IC50 is more than 14.8 µM.

As to `CCCCCCC[CH2][Sn]([Cl])([Cl])[CH2]CCCCCCC`, the result was inactive.

`N#Cc1ccccc1NC(=O)C(O)C(O)C(O)C(O)C=O` (stereo not drawn): the EC50 is more than 200 µM and the IC50 was more than 200 µM.

For `CCN(CC)C(=O)CCn1cc(F)c(=O)[nH]c1=O`, the EC50 is more than 977 µM and the half-inhibitory concentration (IC50) is more than 977 µM.

`O=C(/C(=N/N(C(=O)c1ccccc1)c1ccccc1)c1ccccc1)c1ccccc1`: the outcome was inactive.

Regarding `CCCOc1cnc([C@H]2CCC3[C@@H]4CC=C5C[C@@H](O)CC[C@]5(C)C4CC[C@@]32C)s1` (stereo partly drawn), the EC50 was more than 60.3 µM and the half-inhibitory concentration (IC50) is more than 60.3 µM.

With `O=C1OC(=O)C2C1CC1C(=O)OC(=O)C12` (stereo not drawn), the EC50 was more than 1200 µM and the IC50 was more than 1200 µM.

Take `CC[n+]1cnc(N)c2c(-c3ccc(Cl)cc3)cn(-c3ccc(C)cc3)c21`: the EC50 is more than 200 µM and the IC50 was determined as 12.3 µM.

`S=C1N(c2ccc(Br)cc2)C2=Nc3ccccc3SC(=C2N=Nc2ccccc2Cl)N1c1ccc(Cl)cc1`: the EC50 is more than 34.7 µM and the IC50 came to 6.76 µM.

As for `COc1ccc2c(c1)CC1COc3cc(OC)ccc3C1O2` (stereo not drawn), the EC50 was more than 200 µM and the half-inhibitory concentration (IC50) was more than 200 µM.

On to `CC1(O)CC(C(F)(F)F)(C(F)(F)F)OC1=O` (stereo not drawn), for which the EC50 is more than 200 µM and the half-maximal inhibitory concentration (IC50) is more than 200 µM.

For `CN(C)c1nc2nonc2nc1Nc1ccccc1`, the EC50 is more than 200 µM and the half-maximal inhibitory concentration (IC50) is more than 200 µM.

`CC(=O)OC1C(OC(C)=O)[C@@]2(C)C(C(O)[C@@H]3C2C(C)C=C2OC(=O)[C@@](C)(O)[C@@]23C)[C@H]2C1[C@]1(C)C(C[C@@H]3O[C@@H]3C1OC(C)=O)C(=O)[C@@H]2O` (stereo partly drawn): the outcome was inactive.

Take `Cc1c(C(N)=C(C#N)C#N)c(=N)oc2ccccc12`: the EC50 is more than 200 µM and the IC50 was determined as 36.3 µM.

On to `NNc1cnn(-c2ccccc2)c(=O)c1Cl`, for which the EC50 was more than 57.5 µM and the half-maximal inhibitory concentration (IC50) was found to be 4.57 µM.

Turning to `CCC12CCCN(Cc3ccccc3)C1c1c([nH]c3ccccc13)C(CO)C2` (stereo not drawn), the EC50 was more than 26.3 µM and the half-inhibitory concentration (IC50) is more than 26.3 µM.

As for `CC1(C)N(OC2CCCCO2)C(c2ccccc2)C(c2ccccc2)=[N+]1[O-]` (stereo not drawn), the EC50 is more than 200 µM and the IC50 came to 35.5 µM.

In the case of `CC1=NC2(CCCCC2)N(Cl)C(=O)C1SC#N` (stereo not drawn), the EC50 is more than 200 µM and the IC50 was found to be 17.8 µM.

With `CC(C)(c1cn(Cc2ccccc2)c2ccccc12)c1cn(Cc2ccccc2)c2ccccc12`, the outcome was inactive.

On to `O=C(O)CNC(=O)Cn1[se]c2ccccc2c1=O`, for which the EC50 was 18.2 µM and the half-inhibitory concentration (IC50) was 110 µM.

With `O=c1[nH]c2ccccc2c(O)c1O`, the EC50 is more than 200 µM and the concentration for half-maximal inhibition (IC50) was more than 200 µM.

With `O=C(Nc1ccc(Cl)cc1Cl)C(=O)Nn1c(=S)[nH]c2ccccc2c1=O`, the result was inactive.

For the compound `O=CCC(O)C(O)C(O)CO` (stereo not drawn), the EC50 was more than 759 µM and the IC50 is more than 759 µM.

Consider `NC(=O)/N=N/C(N)=O`, for which the EC50 is 105 µM and the IC50 was 372 µM.

As for `Cc1ccc2c(c1)sc1nnc(S(C)(=O)=O)n12`, the EC50 is more than 200 µM and the IC50 was 11.2 µM.

For `COC1OC2COc3ccccc3OC2C2N=C(N)SC12` (stereo not drawn), the EC50 was 295 µM and the IC50 was 363 µM.

In the case of `N#CC(C#N)=Cc1ccccc1Br`, the EC50 is more than 191 µM and the half-inhibitory concentration (IC50) came out at 3.31 µM.

For the compound `COCn1c(C(=O)c2ccc(OC)cc2)cc2ccccc21`, the EC50 is more than 33.9 µM and the half-maximal inhibitory concentration (IC50) was more than 33.9 µM.

On to `COc1c2occc2c(OC(C)C(=O)O)c2c(O)cc(=O)oc12` (stereo not drawn), for which the EC50 is more than 282 µM and the IC50 is more than 282 µM.

Take `CC(C)(C)OC(=O)N(CCCCNC(=O)c1ccccc1)CCCNC(=O)c1ccccc1`: the EC50 was more than 200 µM and the concentration for half-maximal inhibition (IC50) was found to be 45.7 µM.

Turning to `c1ccc2cc(C3NCCc4[nH]cnc43)ccc2c1` (stereo not drawn), the EC50 is more than 28.8 µM and the IC50 is more than 28.8 µM.

As for `CC1(C)CC(=O)C(C=NC(=O)c2ccncc2)=C(O)C1`, the EC50 is 100 µM and the half-inhibitory concentration (IC50) is more than 200 µM.

As to `COc1cccc(C(CC(=O)O)=NCCc2c[nH]c3ccccc23)c1C(=O)O`, the EC50 is more than 603 µM and the concentration for half-maximal inhibition (IC50) stood at 316 µM.

As for `Clc1ccc2c(NCCCCN3OC3c3ccccc3)ccnc2c1` (stereo not drawn), the EC50 was more than 200 µM and the IC50 worked out at 5.01 µM.

`Cc1cc(C)c(C#N)c(SC(=S)NC(=O)c2ccccc2)n1`: the EC50 was 158 µM and the IC50 was more than 200 µM.

`COc1ccc(NC(=O)CC/C(CC(=O)c2ccco2)=N/Nc2ccc([N+](=O)[O-])cc2[N+](=O)[O-])cc1`: the EC50 was more than 52.5 µM and the half-inhibitory concentration (IC50) turned out to be 30.9 µM.

As to `Ic1ccccc1SSc1ccccc1I`, the EC50 was more than 200 µM and the IC50 came to 8.71 µM.

In the case of `CC(C)(C)c1cc(CCC(=O)Nc2ccc(Cl)cc2)nc(NC#N)n1`, the EC50 is more than 692 µM and the concentration for half-maximal inhibition (IC50) is more than 692 µM.

On to `COc1ccccc1C1CC(=O)CC(c2ccccc2OC)C12C(=O)NC(=S)NC2=O` (stereo not drawn), for which the EC50 was more than 200 µM and the IC50 is 46.8 µM.

As for `O=C(c1ccccc1)C1(c2ccccc2)SSC1(C(=O)c1ccccc1)c1ccccc1` (stereo not drawn), the EC50 was more than 100 µM and the IC50 is more than 100 µM.

Regarding `COc1c(Cl)cc(C(=CCC[C@H]2CC[C@@]3(C)C(CC[C@@H]4C3CC[C@]3(C)C(C(C)CCCC(C)C)CCC43)C2)c2cc(Cl)c(OC)c(C(=O)O)c2)cc1C(=O)O` (stereo partly drawn), the 50% effective concentration (EC50) was 12 µM and the concentration for half-maximal inhibition (IC50) worked out at 302 µM.

In the case of `OC12OC3(c4ccc(C(F)(F)F)cc4)C4C5CC(C6C5C3C61)C42` (stereo not drawn), the result was inactive.

Turning to `COC(=O)C(C(=O)C(N)=O)c1csc(-n2nc(-c3ccccc3)cc2-c2ccccc2)n1` (stereo not drawn), the EC50 was more than 61.7 µM and the IC50 was 53.7 µM.

Regarding `CC(C)c1ccccc1SCc1cc(=O)cc(CSc2ccccc2C(C)C)o1`, the EC50 is more than 200 µM and the IC50 was 11.7 µM.

`c1ccc(SC2(Sc3ccccc3)CCCCCCCCCCC2)cc1`: the EC50 is more than 200 µM and the concentration for half-maximal inhibition (IC50) worked out at 166 µM.

For the compound `CCN(CC)Cc1cc2[nH]c3c4ccc(Cl)cc4ncc3c2cc1OC` (tested in a mixture with another compound), the EC50 was more than 100 µM and the IC50 is 0.457 µM.

For the compound `Cc1ccc(N2C3=C(CC4=C2CC(C)(C)CC4=O)C(=O)CC(C)(C)C3)cc1`, the EC50 is more than 100 µM and the 50% inhibitory concentration (IC50) is more than 100 µM.

Consider `Cc1nnc(N)s/c1=N/O`, for which the EC50 is more than 200 µM and the half-inhibitory concentration (IC50) was more than 200 µM.

Regarding `CCOC(=O)C1=C(C)N(NC(=O)Nc2ccccc2)C2(N)N(NC(=O)Nc3ccccc3)C(C)=C(C(=O)OCC)C12C#N` (stereo not drawn), the EC50 is more than 31.6 µM and the concentration for half-maximal inhibition (IC50) was more than 31.6 µM.

On to `CN(C)c1ccc2c3c(c(=O)oc2c1)CCC3`, for which the EC50 was more than 79.4 µM and the IC50 is more than 79.4 µM.

Consider `COC(=O)c1ccc2cc(O)c(O)cc2c1`, for which the EC50 is more than 200 µM and the IC50 is 22.4 µM.

Turning to `Oc1cc(Br)cc2cccnc12`, the result was inactive.

In the case of `O=c1oc2ccccc2c(-c2ccc(O)cc2)c1Oc1ccc(Cl)cc1`, the outcome was inactive.

Regarding `CCOP1(=O)CC(C)=C(Cl)C(OC)C1` (stereo not drawn), the EC50 is more than 200 µM and the concentration for half-maximal inhibition (IC50) was determined as 107 µM.

Turning to `C=CCN1CCC(OC(=O)C(O)(C#CC)C2CCCC2)CC1` (stereo not drawn), the EC50 was more than 200 µM and the IC50 was more than 200 µM.

For `CCOc1ccc(N=NC2C(=O)N(C(=O)CC(=O)Nc3ccccc3OC)N=C2C)cc1` (stereo not drawn), the EC50 is more than 200 µM and the half-maximal inhibitory concentration (IC50) came out at 7.24 µM.

Turning to `CC(=O)O[C@H]1CCc2c(cc(N)c3c2C(=O)C[C@]2(C)C([C@H](C)CCCC(C)C)CCC32C)C1(C)C` (stereo partly drawn), the EC50 was more than 200 µM and the IC50 is more than 200 µM.

On to `COC(=O)c1cc(OC(C)=O)c2c(OC)ccc(OC)c2c1`, for which the result was inactive.

Turning to `COc1ncnc2c1ncn2C1CC(O)C(CO)(C(F)(F)F)O1` (stereo not drawn), the EC50 is more than 200 µM and the concentration for half-maximal inhibition (IC50) was more than 200 µM.

On to `O=C1NC(N2CCCCC2)=N/C1=C\c1ccc(Cl)cc1`, for which the EC50 was more than 200 µM and the half-maximal inhibitory concentration (IC50) was 97.7 µM.

For `NC1=NN(c2ccccc2)C(=O)/C1=C\n1c(=S)[nH]c2ccccc21`, the EC50 is more than 200 µM and the IC50 was more than 200 µM.

For `O=c1ccc(=O)n(-c2ccc(Cl)cc2)[nH]1`, the EC50 was more than 162 µM and the half-inhibitory concentration (IC50) was more than 162 µM.

With `COC1(O)c2cccc(Cl)c2C(=O)N1C1(C(N)=O)CCCCC1` (stereo not drawn), the result was inactive.

Regarding `CN(C)CC1CCCCC1O` (stereo not drawn), the EC50 is more than 1290 µM and the concentration for half-maximal inhibition (IC50) was more than 1290 µM.

In the case of `O=C/C(=C(/Cl)c1ccc(O)cc1)c1ccccc1`, the EC50 is more than 115 µM and the IC50 was 49 µM.

Take `O=C1CN(CCN2CCOCC2)CC(=O)N2CCCCN12`: the EC50 was more than 200 µM and the IC50 is more than 200 µM.

With `CCOc1ccc(/C(C)=N/NC(N)=S)cc1`, the result was inactive.

As to `O=C(NC1CCCCC1)/C(=C\c1ccc(/C=C(/NC(=O)c2ccccc2)C(=O)NC2CCCCC2)cc1)NC(=O)c1ccccc1`, the EC50 was more than 200 µM and the IC50 was 120 µM.

On to `c1ccc(N2CCN(CCCN3CCc4c([nH]c5ccccc45)C3c3cccnc3)CC2)cc1` (stereo not drawn), for which the EC50 is more than 2.19 µM and the concentration for half-maximal inhibition (IC50) is more than 2.19 µM.

For the compound `CC(C)=CC[C@]12CCN(C)[C@H]1N(S(=O)(=O)c1ccccc1)c1ccccc12`, the EC50 was more than 200 µM and the IC50 came to 135 µM.

Regarding `O=C(Nc1ccc([N+](=O)[O-])cc1)N(c1ccccn1)c1ccccn1`, the EC50 was more than 200 µM and the IC50 stood at 151 µM.
